Data from US20080051454A1, “Compositions and methods for transient receptor potential vanilloid (TRPV) channel mediated treatments” (The Board of Trustees Operating Michigan State University, priority 2006, published 2008).
Values belong to the compound of their own block, whether it stands above or below them.

Key:
renal cortex and medulla = test: Neonatal capsaicin treatment plus NS or HS diet: renal superoxide, SOD and NAD(P)H oxidase subunits; design: species or system rat
Method: Enhanced oxidative stress in kidneys of salt-sensitive hypertension: role of sensory nerves (Am J Physiol Heart Circ Physiol 291: H3136-H3143, 2006). To determine the mechanism(s) underlying enhanced oxidative stress in kidneys of salt-sensitive hypertension, neonatal Wistar rats were given vehicle or capsaicin (CAP, 50 mg/kg sc) on the first and second days of life. After being weaned, male rats were assigned into four groups and treated for 2 wk with the following: vehicle+a normal sodium diet (NS, 0.4%, CON-NS), vehicle+a high-sodium diet (HS, 4%, CON-HS), CAP+NS (CAP−NS), and CAP+HS (CAP−HS). […] Plasma and urinary 8-iso-prostaglandin F2alpha levels increased by approximately 40% in CON-HS and CAP−HS rats compared with their respective controls fed a NS diet (P≦0.05), and these parameters were higher in CAP−HS compared with CON-HS rats. Superoxide (O2—) levels in the renal cortex and medulla increased by approximately 45% in CAP−HS compared with CON-HS, CON-NS, and CAP−NS rats (P≦0.05). […]

WT and TRPV1−/− hearts = test: OLDA-induced CGRP and SP release from hearts (radioimmunoassay); design: species or system mouse
[1] = tested on: Wistar rats (Con-NS, Con-HS, Cap-NS, Cap-HS); test: Natriuretic, diuretic and depressor effects of i.v. diuretics in control and capsaicin-pretreated rats on normal or high sodium diet; type: in vivo, rat; conditions: intravenous
Method: (a) Urine flow rate. (b) Urine sodium excretion. […] (c) Mean arterial pressure. […] Vehicle; trichlormethiazide.
(a) Urine flow rate. (b) Urine sodium excretion. […] (c) Mean arterial pressure.
(a) Urine flow rate. (b) Urine sodium excretion. […] (c) Mean arterial pressure. […] Vehicle; amiloride.
Design and methods Neonatal Wistar rats were treated with capsaicin or vehicle. Seven-week-old male rats were treated for 2 weeks with: vehicle plus a normal (Con-NS) or high (Con-HS) sodium diet, and capsaicin pretreatment plus a normal (Cap-NS) or high (Cap-HS) sodium diet. Mean arterial pressure (MAP), renal excretory function, and protein expression determined by Western blot were performed.

[2] = tested on: high-salt plus capsaicin pretreated rats; conditions: rat, in vivo; cited from earlier work
hearts of WT mice = test: Langendorff perfused heart, ischemia and reperfusion (I/R) with OLDA, wild type; design: species or system mouse; conditions: antagonist 1×10^−6 M
Method: The following measurements were made on the two types of heart tissue: left ventricular end-diastolic pressure (LVEDP), left ventricular developed pressure (LVDP), coronary flow (CF), and left ventricular (LV) peak positive rate of pressure change/rate of time change (+dP/dt) were evaluated after I/R.

[3] = tested on: Wistar rats fed a NS or HS diet for 10 days; test: MAP responses to i.v. capsaicin with or without CAPZ in urethane-anesthetized rats; type: in vivo, rat; conditions: CGRP8-37 infusion; capsaicin 30 μg/kg
Method: (§1) Surgical Preparation Rats were anesthetized with ketamine and xylazine (80 and 4 mg/kg intraperitoneally, respectively) for cannulation or with urethane (1.5 g/kg intraperitoneally) for capsaicin administration. The left jugular vein, carotid and femoral artery were cannulated under anesthesia for injection of drugs or monitoring of mean arterial pressure (MAP) and heart rate (HR).
Each dose of injection was separated by a 30-minute interval. To determine the specificity of capsaicin, CAPZ (3 mg/kg) was administered 10 minutes before capsaicin injection in a separate group.

[4] = tested on: Wistar rats fed a normal-salt (NS) or high-salt (HS) diet for 10 days; test: MAP and HR responses to i.v. bolus NADA with or without antagonists in conscious rats; type: in vivo, rat; conditions: for prolonged depressor effect of NADA (decrease in MAP) after antagonist: NADA 4 mg/kg after CAPZ 3 mg/kg, CGRP8-37 infusion or SR141716A 3 mg/kg
From the text: In brief: Wistar rats were fed a normal (NS, 0.4%) or high (HS, 4%) sodium diet for 10 days, then artery and vein were cannulated for measurement of mean arterial pressure (MAP) or for injection of drugs and collection of plasma.
Animal Preparation: Male Wistar rats (7 weeks old, Charles River Laboratory, Wilmington, Mass.) were housed in the animal facility for 1 week before the experiment. Rats were grouped randomly and pair-fed a NS (0.4% of Na^+ by weight) or HS (4% of Na^+ by weight) diet for 10 days. The rat chow was purchased from Harlan Teklad Diets (Madison, Wis.). Drinking water was available ad libitum throughout the experiment. All protocols were in accordance with the National Institutes of Health Guidelines for the Care and Use of Laboratory Animals.
as §1
Three hours after surgery, baseline MAP and its response to the above-mentioned drugs were obtained with the rats fully awake and unrestrained [Wang et al., Am J Physiol 2004; 287:H1868-H[874]. NADA was injected in increasing doses (1, 4, and 10 mg/kg intravenous bolus) in 3 subgroups of rats (each group for each dose). To determine the role of TRPV1 and CB 1 receptor in NADA-induced hypotension, NADA (4 mg/kg) was injected 10 minutes or 20 minutes after intravenous injection of CAPZ (3 mg/kg) or SR141716A (3 mg/kg), respectively.
To examine the effect of CGRP8-37 on NADA-induced hypotension, CGRP8-37 was intravenously administered at the rate of 1 mg/kg/min for 2 minutes followed by injection at the rate of 0.5 mg/kg/min for 15 minutes. NADA (4 mg/kg) was injected 1 minute after CGRPs-37 administration. The effectiveness of the dose and time frame for CGRP8-37 injection was verified by blockade of the hypotensive response to capsaicin (30 μg/kg) (n=5).

TRPV1−/− hearts = test: Preconditioning (PC) protection against I/R in Langendorff hearts with receptor antagonists, TRPV1-null; design: species or system mouse; conditions: CAPZ 10^−7 M, CGRP8-37 10^−6 M, RP67580 10^−7 M
Method: Male TRPV1 gene knockout (TRPV1-/-) strain B6.129S[…][…]^tm1Jul and matching control wild type (WT) strain C57BL/6J mice were used (Jackson Laboratory, Bar Harbor, Me.). Mice were heparinized (500 U/kg i.p.) and anesthetized with pentobarbital sodium (50 mg/kg i.p.). […] The distal end of the catheter was connected to a […] Performance Analyzer via a pressure transducer. Coronary flow (CF) was continuously measured using an ultrasonic flow probe placed in the aortic perfusion line. Hearts were paced at 400 bpm except during ischemic PC and sustained global ischemia to avoid inducing excessive ventricular tachyarrhythmia during reperfusion, and pacing was reinitiated 2 minutes after reperfusion. Left ventricular developed pressure (LVDP, peak systolic minuses LVEDP) and LV peak positive […]) during isovolumic contraction were used as indices of LV systolic function; LVEDP and the peak negative […] used as indices of LV diastolic function. […] Non-preconditioned hearts were time-matched perfused with the same duration as that of preconditioned hearts. Group 1: Controls. As normal controls (nonischemic), WT and TRPV1-/- hearts were perfused for 130 minutes. For I/R controls, WT and TRPV1-/- hearts were first perfused with Krebs-Henseleit buffer for 55 min (time-matched perfusion of the equilibration period plus the PC period), and subsequently subjected to 30 minutes of no-flow normothermic global ischemia followed by 40-minutes of reperfusion. Group 2: PC. […] The hearts were subjected to 30 minutes of no-flow normothermic global ischemia followed by 40-minutes of reperfusion as that of I/R control groups. Group 3: PC plus capsazepine (CAPZ). […] Two additional concentrations of CAPZ, 10^-6M and 10^-8 M, were used in WT hearts. An additional drug control was added. After a 20-minute equilibration period, WT hearts were perfused with CAPZ (10^-7 M) for 10 minutes without PC, followed by perfusion with Krebs-Henseleit buffer for 25 minutes (time-matched perfusion of the PC period) and then subjected to I/R. Group 4: […] […]

male Wistar rats = test: Depressor effect of 20-HETE analog DSR given IV, with or without antagonists; type: in vivo, rat; conditions: DSR 1 mg/kg with CAPZ 3 mg/kg, RP67580 4 mg/kg or CGRP 8-37 3 mg/kg
WT hearts [5] = test: Preconditioning (PC) protection against I/R in Langendorff hearts with receptor antagonists, wild type; design: species or system mouse
Method: Male TRPV1 gene knockout (TRPV1-/-) strain B6.129S[…][…]^tm1Jul and matching control wild type (WT) strain C57BL/6J mice were used (Jackson Laboratory, Bar Harbor, Me.). Mice were heparinized (500 U/kg i.p.) and anesthetized with pentobarbital sodium (50 mg/kg i.p.). […] The distal end of the catheter was connected to a […] Performance Analyzer via a pressure transducer. Coronary flow (CF) was continuously measured using an ultrasonic flow probe placed in the aortic perfusion line. Hearts were paced at 400 bpm except during ischemic PC and sustained global ischemia to avoid inducing excessive ventricular tachyarrhythmia during reperfusion, and pacing was reinitiated 2 minutes after reperfusion. Left ventricular developed pressure (LVDP, peak systolic minuses LVEDP) and LV peak positive […]) during isovolumic contraction were used as indices of LV systolic function; LVEDP and the peak negative […] used as indices of LV diastolic function. […] Non-preconditioned hearts were time-matched perfused with the same duration as that of preconditioned hearts. Group 1: Controls. As normal controls (nonischemic), WT and TRPV1-/- hearts were perfused for 130 minutes. For I/R controls, WT and TRPV1-/- hearts were first perfused with Krebs-Henseleit buffer for 55 min (time-matched perfusion of the equilibration period plus the PC period), and subsequently subjected to 30 minutes of no-flow normothermic global ischemia followed by 40-minutes of reperfusion. Group 2: PC. […] The hearts were subjected to 30 minutes of no-flow normothermic global ischemia followed by 40-minutes of reperfusion as that of I/R control groups. Group 3: PC plus capsazepine (CAPZ). […] Two additional concentrations of CAPZ, 10^-6M and 10^-8 M, were used in WT hearts. An additional drug control was added. After a 20-minute equilibration period, WT hearts were perfused with CAPZ (10^-7 M) for 10 minutes without PC, followed by perfusion with Krebs-Henseleit buffer for 25 minutes (time-matched perfusion of the PC period) and then subjected to I/R. Group 4: […] Two additional concentrations of CGRP8-37, 10^-5 M and 10^-7 M, were used in WT hearts. An additional drug control of CGRP8-37 was added as that of the CAPZ control group. Group 5: PC plus RP67580. To determine the role of endogenous SP during PC, hearts from WT and TRPV1-/-mice were perfused as that of CAPZ with RP67580 (10^-7 M), a selective neurokinin-1 (NK1) receptor antagonist. Two additional concentrations of RP67580, 10^-6 M and 10^-8 M, were used in WT hearts. An additional drug control of RP67580 was added as that of the CAPZ control group.

WT hearts [6] = test: Lactate dehydrogenase (LDH) release during I/R; design: species or system mouse
Method: Lactate dehydrogenase (LDH) release: In addition to the measurement of cardiac function, cardiac injury was assessed by measuring LDH release. Perfusion effluent was collected during the first 10 minutes to 20 minutes of I/R and stored at […] until analyzed. Total LDH levels were determined with the use of a CytoTox 96 assay (Promega). The data were expressed as absorbance units released per milliliter per minute per gram of heart wet tissues (Turnbull et al., Am J Physiol Heart Circ Physiol 290: […]-9, 2006; herein incorporated by reference).

O2— production in renal cortex after ex vivo incubation (renal cortex and medulla; apocynin 0.1 mM, CAP−HS rats): 2.83 0.38 nmol_min—1_mg dry wt—1 | O2— production in renal medulla after ex vivo incubation (renal cortex and medulla; apocynin 0.1 mM, CAP−HS rats): 1.73 0.23 nmol_min—1_mg dry wt—1 | effect on O2— production (renal cortex and medulla; apocynin, CON-HS, CON-NS and CAP−NS rats): no significant effects | effect on enhanced O2— levels in cortex and medulla of CAP−HS rats (renal cortex and medulla; preincubation of renal tissues with apocynin): prevented
Compound: COc1cc(C(C)=O)ccc1O [apocynin]

Compound: COc1ccc2c(c[n+](C)c3c4cc5c(cc4ccc23)OCO5)c1OC [chelerythrine]
effect on OLDA-increased CGRP and SP release in WT hearts (WT and TRPV1−/− hearts): blocked

Compound: NS(=O)(=O)c1cc(C(=O)O)c(NCc2ccco2)cc1Cl [furosemide]
effect on MAP (words) [1]: decreased MAP in Cap-HS but not in Cap-NS, Con-NS, and Con-HS rats | time of peak urine flow rate (UFR) after injection [1]: 5 min | effect on MAP (words) ([1]; listed as Furosemide): decreased MAP in Cap-HS rats only

Compound: CCCCc1nc(Cl)c(CO)n1Cc1ccc(-c2ccccc2-c2nn[nH]n2)cc1 [losartan]
effect on the impaired natriuretic response [2]: unable to prevent | prevention of the development of salt-induced hypertension [2]: prevented

Compound: NS(=O)(=O)c1cc2c(cc1Cl)NC(C(Cl)Cl)NS2(=O)=O (stereo not shown) [trichlormethiazide]
effect on MAP (words) [1]: decreased MAP in Cap-HS but not in Cap-NS, Con-NS, and Con-HS rats | time of peak urine flow rate (UFR) after injection [1]: 10 min | urine flow / urine sodium excretion (words) [1]: significantly increased | effect on MAP (words) ([1]; listed as Trichlormethiazide): decreased MAP in Cap-HS rats only | urine flow / urine sodium excretion (words) ([1]; listed as Trichlormethiazide): increased

Compound: CGRP8-37: selective calcitonin gene-related peptide (CGRP) receptor antagonist peptide
effect on protective effect of OLDA in WT hearts (hearts of WT mice): abolished | effect on hypotensive response to capsaicin [3]: blockade | effect of antagonist on NADA-induced depressor effect ([4]; NADA 4 mg/kg): abolished | prolonged depressor effect of NADA (decrease in MAP) after antagonist ([4]; HS diet): 6±3 mmHg | prolonged depressor effect of NADA (decrease in MAP) after antagonist ([4]; NS diet): 5±2 mmHg | effect on these parameters in TRPV1−/− hearts (TRPV1−/− hearts): no effect | DSR induced-depressor effect after antagonist (male Wistar rats): 9.3±3.3 mmHg | effect on cardiac function in WT hearts without I/R (WT hearts [5]): no effect on cardiac function | effect on PC-induced cardiac protection (LVEDP, LVDP, CF, +dP/dt, −dP/dt) in WT hearts (WT hearts [5]; CAPZ 10^−7 M, CGRP8-37 10^−6 M, RP67580 10^−7 M): blocked PC-induced cardioprotective effects | effect on PC protection assessed by LDH levels after I/R in WT hearts (WT hearts [6]): abolished
